Measurements reported in patent US10377731B2, “Compositions and methods for cancer treatment” (Boston Biomedical, Inc., priority 2007, dated 2019).
“Also recorded” adds a separate entry of the source.

How the values were obtained:
[1] = tested on: Stat3; experiment: Stat3-luciferase (Stat3-Luc) reporter assay, OSM-stimulated HeLa cells; assay type: cell-based; conditions: HeLa cells
Protocol: Luciferase Reporter Assay: HeLa Cells were co-transfected with Stat3-luciferase (Stat3-Luc) reporter vector (Panomics, Fremont, Calif.) and Renilla luciferase (Promega, Madison, Wis.) using Lipofectamine 2000 as described by the manufacturer (Invitrogen). Following transfection, cells were maintained in medium containing 0.5% FBS for 24 hours. Cells were then treated with the indicated compound for 30 minutes prior to the addition of 25 ng/ml oncostatin M (OSM) (R&D Systems, Minneapolis, Minn.) to the medium. 6 hours following OSM addition, cells were harvested and levels of firefly and renilla luciferase were measured using the Dual-Glo Luciferase Assay System as described by the manufacturer (Promega).
Inhibition of Stat3 transcription activity. Compounds were tested for their ability to inhibit Stat3 transcription activation activity in cells using a Stat3-luciferase (Stat3-luc) reporter construct. Cells transfected with Stat3-luc were cultured in reduced serum medium prior to addition of indicated compound for 30 minutes. Cells were then stimulated with 25 ng/ml oncostatin M (OSM) for 6 hours followed by detection of Stat3-luc reporter activity. […] AG490, a known inhibitor of the Jak-Stat pathway, was included as a positive control for Stat3 inhibition.

[2] = tested on: Stat3; experiment: Stat3 DNA binding assay (EMSA), HeLa nuclear extract; assay type: biochemical; conditions: HeLa nuclear extract with constitutively activated Stat3
Protocol: STAT3 DNA Binding Assay: Electrophoretic mobility shift assay (EMSA) was performed as described by the manufacturer (Li-Cor Biosciences, Lincoln, Nebr.). Briefly, nuclear extracts were made from HeLa cells using the NucBuster Protein Extraction Kit as described by the manufacturer (EMD Biosciences, San Diego, Calif.). 5 μg of nuclear extract was pre-incubated with the indicated dose of indicated compound for 30 minutes prior to a 15-minute incubation with the IR700-labeled consensus Stat3 oligonucleotide. Samples were then electrophoresed on a polyacrylamide gel and directly scanned using the Odyssey infrared imaging system (Li-Cor Biosciences). For the enzyme-linked immunosorbent assay (ELISA), 5 μg of nuclear extract was preincubated with indicated concentration of indicated compound for 30 minutes prior to the addition of biotinylated oligo (5′-Biotin-[…]-3′ SEQ ID NO. 1). Stat3-DNA complexes were then captured on streptavidin coated 96 well plates (Pierce, Rockford, Ill.). Bound complexes were then incubated with Stat3 polyclonal antibody (Santa Cruz Biotechnology, Santa Cruz, Calif.) followed by anti-rabbit HRP conjugated secondary antibody (GE Healthcare, Pittsburgh, Pa.). Bound antibody was then visualized by addition of TMB substrate (Pierce) and absorbance measured at 450 nm.
Inhibition of Stat3 DNA-binding activity. Nuclear extracts from HeLa cells, which contain constitutively activated Stat3 as detected by phosphorylation at the tyrosine 705 residue, were used to perform Stat3 EMSAs to monitor Stat3 DNA binding activity. Nuclear extracts were incubated with indicated compound prior to incubation with IR700-labeled Stat3 consensus oligonucleotide. Binding of Stat3 to the oligonucleotide was monitored by gel electrophoresis and detection using a LiCor Odyssey infrared scanner.

[3] = tested on: A549 human lung cancer cells; experiment: 72 hour MTT, A549 cells, single drugs and combinations; assay type: cell-based; conditions: 72 hour MTT A549 cells, read-out: Compound 401 (% Inhibition)
Protocol: Cell Viability Determination: For 3-(4,5 dimethylthiazol-2-yl)-2,5-diphenyltetrazolium (MTT) (Sigma-Aldrich, St. Louis, Mo.) analysis, cells were plated in 96 well plates at 10,000 cells per well. 24 hours after plating, compound was added to cells at indicated doses. […] following compound addition, MTT was added to each well (0.5 mg/ml, final concentration) and plates were incubated for an additional 2 hours at 37° C. Medium was then aspirated and the formazan product was solubilized in 100 μl of isopropyl alcohol. The absorbance of each well was measured at 570 nm using a microplate reader.
Paca2 human pancreatic cancer cells, A549 human lung cancer cells, and HepG2 human liver cancer cells (American Type Culture Collection) were cultured in Dulbecco's modified Eagle's medium containing 10% fetal bovine serum, 100 units/mL penicillin, 100 μg/mL streptomycin, and 2 mM L-glutamine. […] Erlotinib was from American Custom Chemicals (San Diego, Calif.). Gemcitabine was from Eli Lilly (Indianapolis, Ind.) in an aqueous 20 mM stock solution. Sorafenib was Mass.). Unless otherwise noted all compounds were solubilized in DMSO at 10 mM and aliquoted at −20° C. Exponentially growing Paca2 pancreatic cancer cells were seeded at 1,000 cells per well in 6-well plates and allowed to attach for 24 hours. Increasing concentrations of individual drugs and those in combination were then added to the media for another 24 hours. After 24 hours exposure, the drug was removed and fresh media was added for the next 10-14 days, allowing for colony formation. Cells were fixed and stained with GIEMSA (Gibco BRL). […] Results are an average of duplicate experiments. Alternatively, MTT assays were performed 72 hours post-treatment in A549 and HepG2 cells.

[4] = tested on: CD44high CSCs (FaDu); experiment: Sphere assay (CSC spherogenesis); assay type: cell-based, human; conditions: FACS-isolated CD44high CSCs grown as spheres for 72 hours before challenge
Protocol: CD44^high cells were isolated by FACS according to the methods described in Ponti et al, with slight modification. Briefly, after trypsinization and recovery of cells for 30 minutes at 37° C. in growth media, cells were pelleted at 400×g and were resuspended in PBS with 2% FBS and 1 mM EDTA at 1×10^6 cells/mL. Cells were then incubated on ice with a 1:100 dilution of CD44-FITC (BD Biosicences, San Diego, Calif.) for 15 minutes. Alternatively, CD24-PE (BD Bioscences, San Diego, Calif.) (1:100) was utilized for negative selection. After washing three times, cells were resuspended at 2×10^6/mL and passed through a […] mesh before sorting
Sphere assay: A reliable method of measuring the self-renewal capacity of cell population if the ability to be cultured as spheres in the absence of serum or attachment. CD44^high FaDu or Hoechst side population cancer stem cells were cultured in ultra low attachment plates in cancer stem cell media (DMEM/F12, B27 Neurobasal supplement, 20 ng/ml EGF, 10 ng/ml FGF, 4 μg/ml insulin, and 0.4% BSA) to allow spheres formation. Typically, sphere formation was evaluated by microscopy after 10-14 days in culture and spheres with >50 cells were scored.
Identification of compounds that inhibit CSC spherogenesis in vitro. One of the hallmarks of cancer stem cells is their ability to self-renew. A reliable method of measuring the self-renewal capacity of cell populations is the ability to be cultured as spheres in the absence of serum or attachment. To compare the ability of compound 401 to other targeted and chemotherapeutic agents, FACS-isolated CD44^high CSCs were grown as spheres for 72 hours before being challenged with a panel of therapeutic agents. […] Tarceva, Sutent, and Gleevec were added at approximately three times their reported therapeutic concentrations.

`CC(=O)c1cc2c(o1)C(=O)c1ccccc1C2=O` [Compound 401, 2-acetylnaphtho[2,3-b]furan-4,9-dione] was tested, and the “Inhibition of OSM-stimulated Stat3 reporter activity (in words)” value ([1]; Stat3-luc, 25 ng/ml OSM for 6 hours) was “inhibits”, the IC50 ([1]; Homo sapiens, compound 30 minutes before 25 ng/ml oncostatin M, read 6 hours later, read-out: IC50 in Stat3-Luc assays) was ~250 nM and the “Inhibition of Stat3 DNA-binding activity (in words)” value [2] was “Dose dependent inhibition; also recorded: can inhibit”. For the same molecule, the inhibition at 0.25 µM ([3]; 401 alone 250 nM) was 36%, the inhibition at 0.5 µM ([3]; 401 alone 500 nM) was 35% and the “Effect on CSC sphere proliferation / formation” value [4] was “effective at preventing sphere proliferation; also recorded: blocks”.
